{"source": "patent US11859235B2", "about": "“Sensor, detection method, reagent and kit” (priority 2020, dated 2024)", "tested_on": "acetylcholinesterase", "assay": "acetylcholine decomposition by acetylcholinesterase in a mixed system, monitored as pH change rate", "type": "biochemical", "settings": "addition of limonene to the mixed system of acetylcholine and acetylcholinesterase; FIG. 3", "description": "The reaction of the above formula (1) is a chemical reaction in which acetylcholine acts as a substrate and acetylcholinesterase acts as an enzyme. In general, it is known that a chemical reaction using an enzyme is inhibited by a specific chemical substance for each enzyme, and the reaction rate is reduced or the reaction is stopped. The chemical substance is hereinafter referred to as an “inhibitor”. Here, in the mixed system of acetylcholinesterase and acetylcholine shown in FIG. 2A, when the inhibitor starts to be contained from time t, the cumulative amount of acetylcholine decomposition product after time t changes, that is, the slope of the graph decreases (see FIG. 2B). Therefore, by monitoring the decomposition rate of acetylcholine in the mixed system, it is possible to detect whether or not an inhibitor is present in the mixed system.\nThe target substance to be detected by the sensor according to the present embodiment is an inhibitor against the acetylcholine decomposition reaction of acetylcholinesterase. Examples of this inhibitor include limonene. […] Examples of the inhibitor other than limonene against the acetylcholine decomposition reaction of acetylcholinesterase include terpenoids such as ambrein and pinene, flavonoids such as luteolin, alkaloids such as galantamine, and glycosides such as Cynatroside A."}
{"compound": "C=C(C)[C@H]1CC=C(C)CC1", "note": "[limonene]", "values": [{"measurement": "effect on the pH change rate of the mixed system of acetylcholine and acetylcholinesterase (inhibitory effect on the acetylcholine decomposition reaction)", "value": "reduces the pH change rate of the mixed system"}]}
